The source of these data is patent publication US20220251141A1, “IMMUNOMODULATORS” (Bristol-Myers Squibb Company, priority 2019, published 2022).

pIC50: −log10 of the molar value. Numbered stars: 1 amine (or outer) side, 2 acyl side, 3 side chain; on linkers, the order of the positions; unused ones are H or OH. Bridge positions count the residues as written; N and C are the ends. Square brackets hold non-standard residues; d marks the D form. Side chains are listed from the residue outwards. Peptide text beside a SMILES is read from it. * marks the point of attachment. Trp(1-CH2CO2Me) = COC(=O)Cn1cc(C[C@H](N)C(=O)O)c2ccccc21; Trp(1-CH2COOH) = N[C@@H](Cc1cn(CC(=O)O)c2ccccc12)C(=O)O; X5 = CN(C)S(=O)(=O)NCC[C@H](N[*:1])C(=O)[*:2]; X4 = CN(C)S(=O)(=O)NC[C@H](N[*:1])C(=O)[*:2]; Trp(1-Me) = Cn1cc(C[C@H](N)C(=O)O)c2ccccc21; Phe(4-F) = N[C@@H](Cc1ccc(F)cc1)C(=O)O; X9 = N#CNCC[C@H](N[*:1])C(=O)[*:2]; NHCHPh2 = c1ccc(C(N*)c2ccccc2)cc1; X8 = N#CNC[C@H](N[*:1])C(=O)[*:2]; Hyp = O=C(O)[C@@H]1C[C@@H](O)CN1; NHcycloheptyl = C1CCCC(N*)CC1; NMeNle = CCCC[C@H](NC)C(=O)O; Pen = CC(C)(S)[C@H](N)C(=O)O; Pip = O=C(O)[C@@H]1CCCCN1; NMeA = CN[C@@H](C)C(=O)O; Dab = NCC[C@H](N)C(=O)O; Dap = NC[C@H](N)C(=O)O; X10 = CC(C)(C)SC(=O)*; CO = O=C([*:1])[*:2]; Piv = CC(C)(C)C(=O)*; X1 = CC(=O)NC(=O)*

One may read the pIC50 as the negative decadic logarithm of the IC50, by convention in mol/L. A lower pIC50 goes with a high IC50.

The experiment concerns the target T1, PD-1/PD-L1 (Homo sapiens, UniProt Q9NZQ7).
T1 construct: TVMV protease site linker (C); made in house; host or cells: HEK293T cells
The experiment in a line: PD-1/PD-L1 Homogenous Time-Resolved Fluorescence (HTRF) binding assay. Particulars: PD-L1-His 10 nM final, PD-1-Ig 20 nM final; inhibitors pre-incubated with PD-L1-His for 15 m. The procedure, abridged:
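Compounds pre-incubated 15 min with human PD-L1(18-239)-His (10 nM final), then PD-1(25-167)-Ig (20 nM final) added for 15 min, in dPBS with 0.1% BSA and 0.05% Tween-20. Eu-cryptate anti-Ig (1 nM) and APC anti-His (20 nM) added, 30 min equilibration, 665/620 nm ratio read; IC50 reported.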
Consider `CCCC[C@H]1C(=O)N(C)[C@@H](CCCC)C(=O)N[C@@H](CC(C)C)C(=O)N[C@H](C(=O)NCC(N)=O)CSCC(=O)N[C@@H](Cc2ccc(O)cc2)C(=O)N(C)[C@@H](C)C(=O)N[C@@H](CC(N)=O)C(=O)N2CCC[C@H]2C(=O)N[C@@H](CNC(=O)SC(C)(C)C)C(=O)N[C@@H](CC(C)C)C(=O)N2C[C@H](O)C[C@H]2C(=O)N[C@@H](Cc2c[nH]c3ccccc23)C(=O)N[C@@H](CCNC(=O)SC(C)(C)C)C(=O)N[C@@H](Cc2cn(CC(=O)OC)c3ccccc23)C(=O)N1C` [Example 1025] ({CH2CO}-Y[NMeA]NP[Dap](X10)L[Hyp]W[Dab](X10)[Trp(1-CH2CO2Me)][NMeNle][NMeNle]LCG-NH2; thioether N-14), for which the pIC50 is 8.22.
The result for `CCCC[C@H]1C(=O)N(C)[C@@H](CCCC)C(=O)N[C@@H](CC(C)C)C(=O)N[C@H](C(=O)NCC(N)=O)CSCC(=O)N[C@@H](Cc2ccc(O)cc2)C(=O)N(C)[C@@H](C)C(=O)N[C@@H](CC(N)=O)C(=O)N2CCC[C@H]2C(=O)N[C@@H](CNC(=O)NC2CCCCCC2)C(=O)N[C@@H](CC(C)C)C(=O)N2C[C@H](O)C[C@H]2C(=O)N[C@@H](Cc2c[nH]c3ccccc23)C(=O)N[C@@H](CCNC(=O)NC2CCCCCC2)C(=O)N[C@@H](Cc2cn(CC(=O)O)c3ccccc23)C(=O)N1C` [Example 1045] ({CH2CO}-Y[NMeA]NP[Dap]([CO-NHcycloheptyl])L[Hyp]W[Dab]([CO-NHcycloheptyl])[Trp(1-CH2COOH)][NMeNle][NMeNle]LCG-NH2; thioether N-14) reads 8.34; that for `CCCC[C@H]1C(=O)N(C)[C@@H](CCCC)C(=O)N[C@@H](CC(C)C)C(=O)N[C@H](C(=O)NCC(N)=O)CSCC(=O)N[C@@H](Cc2ccc(O)cc2)C(=O)N(C)[C@@H](C)C(=O)N[C@@H](CC(N)=O)C(=O)N2CCC[C@H]2C(=O)N[C@@H](CNS(=O)(=O)N(C)C)C(=O)N[C@@H](CC(C)C)C(=O)N2C[C@H](O)C[C@H]2C(=O)N[C@@H](Cc2c[nH]c3ccccc23)C(=O)N[C@@H](CCNS(=O)(=O)N(C)C)C(=O)N[C@@H](Cc2cn(CC(=O)O)c3ccccc23)C(=O)N1C` [Example 1022] ({CH2CO}-Y[NMeA]NP[X4]L[Hyp]W[X5][Trp(1-CH2COOH)][NMeNle][NMeNle]LCG-NH2; thioether N-14), 7.82.
The compound `CCCC[C@H]1C(=O)N(C)[C@@H](CCCC)C(=O)N[C@@H](CCC(=O)O)C(=O)N[C@H](C(N)=O)CSCC(=O)N[C@@H](Cc2ccc(F)cc2)C(=O)N2CCCC[C@H]2C(=O)N[C@@H](CC(N)=O)C(=O)N2CCC[C@H]2C(=O)N[C@@H](CNC(=O)C(C)(C)C)C(=O)N[C@@H](CC(C)C)C(=O)N2C[C@H](O)C[C@H]2C(=O)N[C@@H](Cc2c[nH]c3ccccc23)C(=O)N[C@@H](CCN)C(=O)N[C@@H](Cc2cn(C)c3ccccc23)C(=O)N1C` [Example 20270] ({CH2CO}-[Phe(4-F)][Pip]NP[Dap](Piv)L[Hyp]W[Dab][Trp(1-Me)][NMeNle][NMeNle]EC-NH2; thioether N-14) showed a negative logarithm of the IC50 (pIC50) of 7.36.
The result for `CCCC[C@H]1C(=O)N(C)[C@@H](CCCC)C(=O)N[C@@H](CC(C)C)C(=O)N[C@H](C(N)=O)C(C)(C)SCC(=O)N[C@@H](Cc2ccc(F)cc2)C(=O)N2CCCC[C@H]2C(=O)N[C@@H](CC(N)=O)C(=O)N2CCC[C@H]2C(=O)N[C@@H](CNC(=O)C(C)(C)C)C(=O)N[C@@H](CC(C)C)C(=O)N2C[C@H](O)C[C@H]2C(=O)N[C@@H](Cc2c[nH]c3ccccc23)C(=O)N[C@@H](CCN)C(=O)N[C@@H](Cc2cn(C)c3ccccc23)C(=O)N1C` [Example 20120] ({CH2CO}-[Phe(4-F)][Pip]NP[Dap](Piv)L[Hyp]W[Dab][Trp(1-Me)][NMeNle][NMeNle]L[Pen]-NH2; thioether N-14) reads 7.93; that for `CCCC[C@H]1C(=O)N(C)[C@@H](CCCC)C(=O)N[C@@H](CC(C)C)C(=O)N[C@H](C(N)=O)CSCC(=O)N[C@@H](Cc2ccc(F)cc2)C(=O)N2CCCC[C@H]2C(=O)N[C@@H](CC(=O)O)C(=O)N2CCC[C@H]2C(=O)N[C@@H](CNC(=O)C(C)(C)C)C(=O)N[C@@H](CC(C)C)C(=O)N2C[C@H](O)C[C@H]2C(=O)N[C@@H](Cc2c[nH]c3ccccc23)C(=O)N[C@@H](CCN)C(=O)N[C@@H](Cc2cn(CC(=O)O)c3ccccc23)C(=O)N1C` [Example 20050] ({CH2CO}-[Phe(4-F)][Pip]DP[Dap](Piv)L[Hyp]W[Dab][Trp(1-CH2COOH)][NMeNle][NMeNle]LC-NH2; thioether N-14), 7.98.
Compound `CCCC[C@H]1C(=O)N(C)[C@@H](CCCC)C(=O)N[C@@H](CC(C)C)C(=O)N[C@H](C(N)=O)C(C)(C)SCC(=O)N[C@@H](Cc2ccc(F)cc2)C(=O)N2CCCC[C@H]2C(=O)N[C@@H](CC(=O)O)C(=O)N2CCC[C@H]2C(=O)N[C@@H](CNC(=O)C(C)(C)C)C(=O)N[C@@H](CC(C)C)C(=O)N2C[C@H](O)C[C@H]2C(=O)N[C@@H](Cc2c[nH]c3ccccc23)C(=O)N[C@@H](CCN)C(=O)N[C@@H](Cc2cn(C)c3ccccc23)C(=O)N1C` [Example 20210] ({CH2CO}-[Phe(4-F)][Pip]DP[Dap](Piv)L[Hyp]W[Dab][Trp(1-Me)][NMeNle][NMeNle]L[Pen]-NH2; thioether N-14) showed a pIC50 of 7.79.
The result for `CCCC[C@H]1C(=O)N(C)[C@@H](CCCC)C(=O)N[C@@H](CC(C)C)C(=O)N[C@H](C(=O)NCC(N)=O)CSCC(=O)N[C@@H](Cc2ccc(O)cc2)C(=O)N(C)[C@@H](C)C(=O)N[C@@H](CC(N)=O)C(=O)N2CCC[C@H]2C(=O)N[C@@H](CNC#N)C(=O)N[C@@H](CC(C)C)C(=O)N2C[C@H](O)C[C@H]2C(=O)N[C@@H](Cc2c[nH]c3ccccc23)C(=O)N[C@@H](CCNC#N)C(=O)N[C@@H](Cc2cn(CC(=O)O)c3ccccc23)C(=O)N1C` [Example 1019] ({CH2CO}-Y[NMeA]NP[X8]L[Hyp]W[X9][Trp(1-CH2COOH)][NMeNle][NMeNle]LCG-NH2; thioether N-14) reads 8.92; that for `CCCC[C@H]1C(=O)N(C)[C@@H](CCCC)C(=O)N[C@@H](CC(C)C)C(=O)N[C@H](C(=O)NCC(N)=O)CSCC(=O)N[C@@H](Cc2ccc(O)cc2)C(=O)N(C)[C@@H](C)C(=O)N[C@@H](CC(N)=O)C(=O)N2CCC[C@H]2C(=O)N[C@@H](CNC(=O)NC(c2ccccc2)c2ccccc2)C(=O)N[C@@H](CC(C)C)C(=O)N2C[C@H](O)C[C@H]2C(=O)N[C@@H](Cc2c[nH]c3ccccc23)C(=O)N[C@@H](CCNC(=O)NC(c2ccccc2)c2ccccc2)C(=O)N[C@@H](Cc2cn(CC(=O)O)c3ccccc23)C(=O)N1C` [Example 1037] ({CH2CO}-Y[NMeA]NP[Dap]([CO-NHCHPh2])L[Hyp]W[Dab]([CO-NHCHPh2])[Trp(1-CH2COOH)][NMeNle][NMeNle]LCG-NH2; thioether N-14), 8.29.
The result for `CCCC[C@H]1C(=O)N(C)[C@@H](CCCC)C(=O)N[C@@H](CC(C)C)C(=O)N[C@H](C(=O)NCC(N)=O)CSCC(=O)N[C@@H](Cc2ccc(O)cc2)C(=O)N(C)[C@@H](C)C(=O)N[C@@H](CC(N)=O)C(=O)N2CCC[C@H]2C(=O)N[C@@H](CNC(=O)NC(C)=O)C(=O)N[C@@H](CC(C)C)C(=O)N2C[C@H](O)C[C@H]2C(=O)N[C@@H](Cc2c[nH]c3ccccc23)C(=O)N[C@@H](CCNC(=O)NC(C)=O)C(=O)N[C@@H](Cc2cn(CC(=O)O)c3ccccc23)C(=O)N1C` [Example 1031] ({CH2CO}-Y[NMeA]NP[Dap](X1)L[Hyp]W[Dab](X1)[Trp(1-CH2COOH)][NMeNle][NMeNle]LCG-NH2; thioether N-14) reads 8.33; that for `CCCC[C@H]1C(=O)N(C)[C@@H](CCCC)C(=O)N[C@@H](CC(C)C)C(=O)N[C@H](C(N)=O)C(C)(C)SCC(=O)N[C@@H](Cc2ccc(F)cc2)C(=O)N2CCCC[C@H]2C(=O)N[C@@H](CC(=O)O)C(=O)N2CCC[C@H]2C(=O)N[C@@H](CNC(=O)C(C)(C)C)C(=O)N[C@@H](CC(C)C)C(=O)N2C[C@H](O)C[C@H]2C(=O)N[C@@H](Cc2c[nH]c3ccccc23)C(=O)N[C@@H](CCN)C(=O)N[C@@H](Cc2cn(CC(=O)O)c3ccccc23)C(=O)N1C` [Example 20060] ({CH2CO}-[Phe(4-F)][Pip]DP[Dap](Piv)L[Hyp]W[Dab][Trp(1-CH2COOH)][NMeNle][NMeNle]L[Pen]-NH2; thioether N-14), 7.98.
For the compound `CCCC[C@H]1C(=O)N(C)[C@@H](CCCC)C(=O)N[C@@H](CC(C)C)C(=O)N[C@H](C(N)=O)CSCC(=O)N[C@@H](Cc2ccc(F)cc2)C(=O)N2CCCC[C@H]2C(=O)N[C@@H](CC(=O)O)C(=O)N2CCC[C@H]2C(=O)N[C@@H](CNC(=O)C(C)(C)C)C(=O)N[C@@H](CC(C)C)C(=O)N2CCC[C@H]2C(=O)N[C@@H](Cc2c[nH]c3ccccc23)C(=O)N[C@@H](CCNC(=O)C(C)(C)C)C(=O)N[C@@H](Cc2cn(CC(=O)O)c3ccccc23)C(=O)N1C` [Example 20040] ({CH2CO}-[Phe(4-F)][Pip]DP[Dap](Piv)LPW[Dab](Piv)[Trp(1-CH2COOH)][NMeNle][NMeNle]LC-NH2; thioether N-14), the pIC50 was 8.08.
For `CCCC[C@H]1C(=O)N(C)[C@@H](CCCC)C(=O)N[C@@H](CC(C)C)C(=O)N[C@H](C(=O)NCC(N)=O)CSCC(=O)N[C@@H](Cc2ccc(O)cc2)C(=O)N(C)[C@@H](C)C(=O)N[C@@H](CC(N)=O)C(=O)N2CCC[C@H]2C(=O)N[C@@H](CNC(=O)N(C)C)C(=O)N[C@@H](CC(C)C)C(=O)N2C[C@H](O)C[C@H]2C(=O)N[C@@H](Cc2c[nH]c3ccccc23)C(=O)N[C@@H](CCNC(=O)N(C)C)C(=O)N[C@@H](Cc2cn(CC(=O)O)c3ccccc23)C(=O)N1C` [Example 1032] ({CH2CO}-Y[NMeA]NP[Dap]([CO-NMe2])L[Hyp]W[Dab]([CO-NMe2])[Trp(1-CH2COOH)][NMeNle][NMeNle]LCG-NH2; thioether N-14) the value was 9.13.
